Assay results reported in US4259332A, “Novel taurine derivatives” (priority 1979, dated 1981).

Columns and labels:
[1] = Choleretic activity in cannulated rats; assay type: in vivo, rat
Procedure: Rats were fitted with a cannula, the bile volume was measured after the first hour, they were then treated with a test compound and the bile volume was measure after the second hour, so as to determine the percentage change. The various compounds were administered intravenously at a dose of 100 mg/kg.

[2] = Vasodilator activity (vasodilation of the ocular conjunctiva in guinea pigs); assay type: in vivo, guinea pig
[3] = Toxicology, oral treatment of mice for 180 days, Compound A; assay type: in vivo, mouse; conditions: 200 mg/kg orally
[4] = Protection against hepatic intoxication by CCl4 and cold, Compound A (BSF in blood); assay type: in vivo; conditions: 500 mg/kg simultaneously with CCl4; 5 h at 4° C.
Procedure: Oral administration of 5 ml/kg of a 20% solution of CCl4 in oil was followed by exposure for 5 hours to a temperature of 4° C. 500 Mg/kg of the Compound A of the invention were administered simultaneously with the CCl4. The BSF was tested in the blood. An average of 20 animals were used per group, and relative to the controls there was a reduction of 16%.

[5] = Antilipemic action, Morris or Handler diet, Compound A; assay type: in vivo, Wistar rat; conditions: for Bile BSF excretion, percentage change vs controls / Serum beta-lipoproteins, percentage change vs controls / Serum total cholesterol, percentage change vs controls / Serum total lipids, percentage change vs controls: 50 days, 200 mg/kg orally
Procedure: Wistar rats were treated for 50 days with a Morris diet or a Handler diet. Simultaneously with the diet they received 200 mg/kg of Compound A or of choline orally every day. The controls only received the diet. The following were examined at the end of the treatment: (a) total cholesterol, total lipids and beta-lipoproteins in the serum, (b) BSF excretion in the bile.

[6] = Edema as a result of nystatin in the rat's paw; assay type: in vivo; conditions: p.o.
Procedure: (B) Edema as a result of nystatin in the rat's paw. The long duration of this type of edema enabled the animals to be repeatedly treated in order to ascertain the presence if any of the protracted effect of the AST product also using parenteral administration. The comparison was carried out using a molar equivalent dose of acetylsalicylic acid administrated orally and with the carboxymethylcellulose placebo also only administered orally. The AST product was used in the acid form orally and in the salt form using intraperitoneal administration.
The dosages of the drugs, always proportional to one another, were varied from day to day, i.e.: the first day a dosage of 200 mg/Kg of ASA and 300 mg/Kg of AST; the second day a double dose of each; the third day a double dose of each divided into two equal components administered with a spacing of 9 hours (10 am and 7 pm respectively); the fourth day no treatment in order to check the length of the effect after the fourth administration.
The […] was injected into the paw on the night before the first treatment with the drugs and the volume of the paw was measured in hundredths of milliliter.

[7] = Analgesic activity: mechanical pressure test on inflamed rat's paw; assay type: in vivo; conditions: oral, ASA 200, AST 300 mg/Kg
Procedure: (B) Mechanical pressure test on inflamed rat's paw. The AST product was administered both in the acid and sodium salt form by the oral method. It was compared with a molar equivalent dosage of acetylsalicylic acid and with a carboxymethylcellulose placebo. The inflammation of the paw was induced by a local injection of yeast simultaneously with the oral treatment with the drugs and the tenderness was measured in grams of mechanical pressure required to cause a reaction in the animal.

[8] = Pharmaco-toxicological tests on laboratory animals (summary); assay type: in vivo
[9] = Edema resulting from yeast in the paw of the rat; assay type: in vivo; conditions: oral, ASA 200, AST 300 mg/Kg
Procedure: (A) Edema resulting from yeast in the paw of the rat. The AST product was administered orally both in the acid and sodium salt form. It was compared with a molar equivalent dose of acetylsalicylic acid and with carboxymethylcellulose placebo. The edema of the paw was induced with a local injection of the yeast simultaneously with the oral treatment with the drugs, and the volume of the paw was measured in hundredths of milliliter.

[10] = Analgesic activity: convulsions produced by phenylquinone; assay type: in vivo, mouse; conditions: oral, ASA 200, AST 300 mg/Kg
Procedure: (A) Test of convulsions produced by phenylquinone injected into mice by the intraperitoneal route. The AST product was administered orally both in the acid form (AST Ac). and as the sodium salt (AST Na). It was compared with a molar equivalent dosage of acetylsalicylic acid and with a carboxymethylcellulose placebo. The convulsions were induced at varying intervals from the oral treatment counting from the first 20 minutes after the injection of phenylquinone.

[11] = assay type: in vivo, rat; conditions: rat, in vivo, po, 335 mg/kg
Procedure: Rats which had not been fed for 24 hours were used. The AST product was administered orally as the acid or the sodium salt at a dosage of 335 mg/Kg suspended in 1% carboxymethylcellulose. […] Both the methods of treatment and the observation time were identical for the 3 groups of animals.

[12] = Antipyretic activity: pyrexia from subcutaneous yeast in the rat; assay type: in vivo; conditions: p.o., ASA 200, AST 300 mg/Kg
Procedure: Pyrexia from subcutaneous yeast in the rat. The AST product was administered orally in the acid from and the salt form with sodium, and by the intraperitoneal method in the salt form. It was compared with a molar equivalent dose of acetylsalicylic acid administered orally and with a carboxymethylcellulose placebo. The pyrexia was induced with a subcutaneous injection of yeast on the evening prior to the drug treatment, i.e. 16 hours before.

Acute toxicity, mouse = conditions: in vivo
Procedure: (§1) Tests were carried out both on mice and rats by means of oral, subcutaneous, intraperitoneal and intravenous administration.
(§2) In the case of oral administration, the product was used in the acid form suspended in an aqueous solution of carboxymethylcellulose, whilst in the case of parenteral administration it was made soluble by salt formation with sodium hydroxide in a physiological solution with a neutral final pH.
(§3) The results are given in the following table, together with the results found in the literature for acetylsalicylic acid (ASA).
(§4) Wherever possible, the values of the LD50 were calculated using the probit method; if no mortality took place even at very high dosages, the maximum dosage tested has been given.

Acute toxicity, rat = conditions: in vivo, intravenous, sodium salt solution
Procedure: as §1, §2, §3, §4

[13] = 100 mg/kg i.v., given after first hour

With `O=C(OCCN(CCS(=O)(=O)O)C(=O)c1cccnc1)c1cccnc1` [Compound A, N-nicotinoyl-N-(2-nicotinoyloxy)ethyltaurine] the “Bile dry residue change” value ([1]; 100 mg/kg i.v.) was “+40.0%”, the Bile volume change ([1]; 100 mg/kg i.v.) was “+52.0%” and the “Choleretic activity (in words)” value ([1]; 100 mg/kg i.v.) was “appearance of choleretic activity”. The “Bile dry residue after 2 h” value [1, 13] was 35.3 mg/h, the “Bile volume after 2 h” value [1, 13] was 1.14 mL/h and the “Bile dry residue after 1 h” value ([1]; before treatment (first hour)) was 25.7 mg/h. For the same molecule, the “Bile volume after 1 h” value ([1]; before treatment (first hour)) was 0.75 mL/h, the “Vasodilator effect: duration” value ([2]; 0.1 mg/kg endoperitoneal) was 0 min and the “Vasodilator effect: positive response” value ([2]; 0.1 mg/kg endoperitoneal) was 0%. For the same molecule, the “Vasodilator effect: duration” value ([2]; 1.0 mg/kg endoperitoneal) was 120 min, the “Vasodilator effect: positive response” value ([2]; 1.0 mg/kg endoperitoneal) was 80% and the “Vasodilator effect: time of appearance” value ([2]; 1.0 mg/kg endoperitoneal) was 90 s. The “Vasodilator effect: duration” value ([2]; 10.0 mg/kg endoperitoneal) was 120 min, the “Vasodilator effect: positive response” value ([2]; 10.0 mg/kg endoperitoneal) was 100% and the “Vasodilator effect: time of appearance” value ([2]; 10.0 mg/kg endoperitoneal) was 96 s. The “Vasodilator activity (in words)” value ([2]; endoperitoneal) was “better activity than the 3-pyridylcarbinol compound”, the Mortality [3] was “no mortality” and the “Reduction of BSF in the blood relative to controls” value [4] was 16%. The “Bile BSF excretion, percentage change vs controls” value ([5]; Handler diet) was “+36.0%”, the “Serum beta-lipoproteins, percentage change vs controls” value ([5]; Handler diet) was -28.9% and the “Serum total cholesterol, percentage change vs controls” value ([5]; Handler diet) was -26.9%. For the same molecule, the “Serum total lipids, percentage change vs controls” value ([5]; Handler diet) was -19.6%, the “Bile BSF excretion, percentage change vs controls” value ([5]; Morris diet) was “+23.5%” and the “Serum beta-lipoproteins, percentage change vs controls” value ([5]; Morris diet) was -34.3%. For the same molecule, the “Serum total cholesterol, percentage change vs controls” value ([5]; Morris diet) was -14.3%, the “Serum total lipids, percentage change vs controls” value ([5]; Morris diet) was -17.0% and the “Oral absorption (deduced from diet tests)” value ([5]; oral, Morris and Handler diets) was “absorbed orally”.

With `CC(=O)Oc1ccccc1C(=O)OCCN(CCOC(=O)c1ccccc1OC(C)=O)CCS(=O)(=O)O` [AST, N,N-di(acetylsalicyloyloxy ethyl)taurine] the “% Inhibition of the edema in respect of treatment with placebo” value (shortened to “% Inhibition of the edema”) ([6]; 1st day, 2h after 1st dose, ASA 200, AST Ac 300 mg/Kg) was 0%, the “% Inhibition of the edema” value ([6]; 1st day, 4h after 1st dose, ASA 200, AST Ac 300 mg/Kg) was 3% and the “% Inhibition of the edema” value ([6]; 1st day, 8h after 1st dose, ASA 200, AST Ac 300 mg/Kg) was 3%. For the same molecule, the “% Inhibition of the edema” value ([6]; 2nd day, 2h after 2nd dose, ASA 400, AST Ac 600 mg/Kg) was 3%, the “% Inhibition of the edema” value ([6]; 2nd day, 4h after 2nd dose, ASA 400, AST Ac 600 mg/Kg) was 2% and the “% Inhibition of the edema” value ([6]; 2nd day, 8h after 2nd dose, ASA 400, AST Ac 600 mg/Kg) was 10%. For the same molecule, the “% Inhibition of the edema” value ([6]; 3rd day, 2h after 3rd dose, ASA 200, AST Ac 300 mg/Kg) was 8%, the “% Inhibition of the edema” value ([6]; 3rd day, 4h after 3rd dose, ASA 200, AST Ac 300 mg/Kg) was 7% and the “% Inhibition of the edema” value ([6]; 3rd day, 8h after 3rd dose, ASA 200, AST Ac 300 mg/Kg) was 6%. The “% Inhibition of the edema” value ([6]; 4th day, 13h after 4th dose, ASA 200, AST Ac 300 mg/Kg) was 3%, the “% Inhibition of the edema” value ([6]; 4th day, 17h after 4th dose, ASA 200, AST Ac 300 mg/Kg) was 3% and the “% Inhibition of the edema” value ([6]; 4th day, 23h after 4th dose, ASA 200, AST Ac 300 mg/Kg) was 0%. The “% Inhibition of the hyperalgesia in respect of treatment with placebo” value (shortened to “% Inhibition of the hyperalgesia”) ([7]; 1h) was 47%, the “% Inhibition of the hyperalgesia” value ([7]; 3h) was 47% and the “% Inhibition of the hyperalgesia” value ([7]; 5h) was 19%. The “Antiinflammatory, analgesic and antipyretic properties (in words)” value ([8]; compared with acetylsalicylic acid) was “marked antiinflammatory, analgesic and antipyretic properties comparable to those of acetylsalicylic acid”, the “Duration of pharmacodynamic activity in comparison with acetylsalicylic acid (in words)” value ([8]; in vivo) was “more prolonged pharmacodynamic activity” and the “Gastric injury (in words)” value ([8]; in vivo) was “did not exert any appreciable gastric injury”. For the same molecule, the “Toxicity in comparison with acetylsalicylic acid (in words)” value ([8]; in vivo) was “less toxic”, the “Inhibition of the edema with respect to treatment with placebo” value (“Inhibition … to treatment with placebo” below) ([9]; 1h) was 42 and the “Inhibition … to treatment with placebo” value ([9]; 3h) was 38. The “Inhibition … to treatment with placebo” value ([9]; 5h) was 48, the “Inhibition % of convulsions in respect of treatment with placebo” value (from here on “Inhibition % of convulsions”) ([10]; 1h) was 10% and the “Inhibition % of convulsions” value ([10]; 2h) was 11%. The “Inhibition % of convulsions” value ([10]; 4h) was 0%, the “Alteration of the gastric or intestinal mucosa” value [11] was “did not show any alteration of the gastric or intestinal mucosa” and the “% Inhibition of the pyrexia in respect of treatment with placebo” value (from here on “% Inhibition of the pyrexia”) ([12]; 1h) was 18%. The “% Inhibition of the pyrexia” value ([12]; 2h) was 26%, the “% Inhibition of the pyrexia” value ([12]; 4h) was 30% and the “% Inhibition of the pyrexia” value ([12]; 6h) was 25%. The “% Inhibition of the pyrexia” value ([12]; 8h) was 9%, the LD50 (Acute toxicity, mouse; intravenous, sodium salt solution) was 520 mg/kg and the LD50 (Acute toxicity, mouse; ip, intraperitoneal, sodium salt solution) was 1300 mg/kg. The LD50 (Acute toxicity, mouse; oral, acid form in carboxymethylcellulose) was 5000 mg/kg, the LD50 (Acute toxicity, mouse; sc, subcutaneous, sodium salt solution) was 2000 mg/kg and the LD50 (Acute toxicity, rat) was 530 mg/kg.
